Test results taken from US20130029928A1 (priority 2010, published 2013).
Several values for one entry are separate records, joined by “and”; a condition that tells them apart may be missing. Equal values may be shown once. Read-outs that look alike come from different tables or passages of the source.

Experiments:
Metabolism = conditions: patients / human
Description: It is presumed that CXR1002 will eventually reach a steady state level after a number of doses, in an analogous way to its accumulative exposure in monkeys.
Unlike most other anti-tumour agents, PFOA is efficiently absorbed following oral exposure.

Plasma protein binding = format: in vitro ADME
SW1353 = assay: ATP depletion cytotoxicity assay 48 hr; format: cell-based, human
Description: (§3) Following exposure to Test Items, the CellTitre-Glo Luminescent Cell Viability Assay to measure ATP content was performed according to the manufacturer's detailed instructions (Promega Corporation, Technical Bulletin No. 288, and Cell notes, Issue 10, 2004).
(§4) Cells were plated at the optimal plating density for that cell line in 96-well plates and allowed to attach overnight. […] Cells were exposed to these compounds in Roswell Park Memorial Institute (RPMI) medium containing 10% Foetal Calf Serum (FCS) and 2 mM Glutamine at 37° C. and 5% CO2 for 48 hours. There were 3 replicates for each test item concentration.
(§5) Following exposure to Test Items, the CellTitre-Glo Luminescent Cell Viability Assay to measure ATP content will be performed according to the manufacturer's detailed instructions (Promega Corporation, Technical Bulletin No. 288, and Cell notes, Issue 10, 2004).

MCF-7 = assay: SRB cytotoxicity assay 48 hr; format: cell-based, human; conditions: read-out: IC50 Values After 48 Hrs Exposure
Description: (§6) The SRB assay was performed according to the method specified by the NIC/NIH. […] Assay replicates were independent in time and up to 4 replicates were performed per cell line.

XBP1 mRNA = assay: RT-PCR analysis of XBP1 mRNA splicing in Panc-1 and HepG2 cells; format: cell-based, human; conditions: Panc-1 500-740 μM, HepG2 300 μM; 1-4 days
Description: XBP1-u: unspliced form of XBPI; XBPI-s: spliced form of XBP1.
1. Control; 2. 500 μM/1 day; 3. 500 μM/2 days; […]; 5. 500 μM/4 days; […]; 7. 740 μM/2 days.
Control/1 day; 2. Control/2 days; 3. Control/4 days; 4. Tunicamycin for 24 h; 5. Tunicamycin for 6 h; 6. 300 μM/1 day; 7. 300 μM/2 days; 8. 300 μM/3 days.

[1] = tested on: panel of human tumour-derived cell lines; assay: Hoechst 3342 staining (apoptotic cells) in the SRB cell line panel; format: cell-based
CaCo-2 = assay: SRB cytotoxicity assay 48 hr; format: cell-based, human; conditions: read-out: IC50 Values After 48 Hrs Exposure
Description: as §6

[2] = Phase I study CXR1002-001: urinary excretion; format: in vivo, human; conditions: 24 hour urine post each weekly dose
HPAFII = assay: ATP depletion cytotoxicity assay 48 hr; format: cell-based, human
Description: as §3, §4, §5

U2OS = assay: ATP depletion cytotoxicity assay 48 hr; format: cell-based; conditions: Homo sapiens, Study CXR0798, read-out: IC50 1
Description: as §6

A375 = assay: SRB cytotoxicity assay 48 hr; format: cell-based, human; conditions: read-out: IC50 Values After 48 Hrs Exposure
Description: as §6

OUMS-27 = assay: ATP depletion cytotoxicity assay 48 hr; format: cell-based, human
Description: as §3, §4, §5

Stability / shelf life = format: physicochemical
[3] = tested on: Panc-1 (pancreatic tumour) cells; assay: Western blot of ER stress-regulated proteins in Panc-1 cells; format: cell-based, human; conditions: 500 μM, 4 h to 4 days
Description: Western blots were performed on the protein extracts (equivalent protein concentrations were loaded onto the gels). The antibodies used were for known ER stress regulated protein Bip/GRP78, CHOP/DDIT3, IRE1alpha, TRB3 (Tribbles3), cleaved PARP (marker of apoptosis), and tubulin (loading control) (see FIG. 71).

Capan2 = assay: ATP depletion cytotoxicity assay 48 hr; format: cell-based, human
Description: Assay replicates were independent in time and up to 4 replicates were performed per cell line.
Cells were plated at the optimal plating density for that cell line in 96-well plates and allowed to attach overnight. The next day, the medium was removed and replaced with fresh medium containing the dose ranges of test items. […] There were 3 replicates for each test item concentration.
as §3
Cells were plated at the optimal plating density for that cell line in 96-well plates and allowed to attach overnight. The next day, cells were pre-treated with the inhibitors UO126 or LY294002 (see Tables 18 & 20) for 2 hrs, the medium was removed and replaced with fresh medium containing the appropriate dose of the test item. […] Cells were exposed to these compounds in Roswell Park Memorial Institute (RPMI) medium containing 10% Foetal Calf Serum (FCS) and 2 mM Glutamine at 37° C. and 5% CO2 for 48 hours. There were 3 replicates for each test item concentration.
as §5

HT1080 = assay: ATP depletion cytotoxicity assay 48 hr; format: cell-based; conditions: Homo sapiens, HT-1080, Study CXR0798, read-out: IC50 1
Description: as §6

[4] = tested on: patients with advanced cancer; assay: Phase I study CXR1002-001: safety and toxicity; format: in vivo, human; conditions: at the doses examined to date
Description: These patients then underwent repeat dosing schedule with the same dose of CXR1002. […] Dose limiting toxicity (DLT) will be based on the toxicity assessments over the first 3-week period of the repeat dosing schedule. PK samples (single blood sample) were taken on the following basis: • Every 6 weeks during the repeat dosing phase • If dosing is interrupted or stopped, samples will be taken at intervals according to patient convenience • PK sampling for safety evaluation may take place at any time, as clinically indicated
In all dose cohorts subsequent to the initial dose cohort, all patients will be treated with weekly administration of study drug from the start of dosing. Dose escalation was performed after all patients at the preceding dose level had completed a 3-week repeat dosing period.

PANC-1 cells = assay: Transcription profiling of CXR1002-treated PANC-1 cells (ER stress genes, Ingenuity); format: cell-based, human; conditions: PANC-1, 24 hrs at IC15
Description: Representation analysis of the in vitro 4996 signature list identified a number of pathways that were over-represented.

[5] = tested on: HT-29 (colon adenocarcinoma) tumours; assay: HT-29 xenograft in nude mice; format: in vivo, nude mouse
Description: (§1) Animals were inoculated with a tumour cell suspension on each flank and the tumours were allowed to grow for 16 days.
(§2) These effects are consistent with a transient effect on the liver associated with mild toxicity and reversible liver enlargement. In rodents, this type of effect is usually due to hepatic PPARα activation associated with peroxisome proliferation.

[6] = HT-29 xenograft in nude mice; format: in vivo, nude mouse; conditions: nude, mouse, plasma, intraperitoneal, 25 mg/kg; HT-29 model; 24 hrs post last dose; Day 29
Description: as §1, §2

BxPc3 = assay: ATP depletion cytotoxicity assay 48 hr; format: cell-based, human
Description: as §3, §4, §5

[7] = tested on: HepG2 (liver) xenograft tumours; assay: HepG2 xenograft model of liver carcinoma; format: in vivo, nude mouse
Description: There was no obvious difference between the two different dosing regimens.

HepG2 = assay: SRB cytotoxicity assay 48 hr; format: cell-based, human; conditions: read-out: IC50 Values After 48 Hrs Exposure
Description: as §6

[8] = ATP depletion, 48 hrs, read-out: IC50 1-4 (independent replicates)

O=C(O)C(F)(F)C(F)(F)C(F)(F)C(F)(F)C(F)(F)C(F)(F)C(F)(F)F [CXR1002]
metabolism (Metabolism): not metabolised
plasma protein binding (Plasma protein binding): highly plasma protein bound
IC50 (SW1353; Homo sapiens, SW1353, 48 h, read-out: IC50 1-4 (independent replicates)): > 1000 µM
IC50 (SW1353; Homo sapiens, SW1353, 48 h, read-out: IC50 Mean): > 1000 µM
IC50 (SW1353; read-out: IC50 1-4 (independent replicates), ATP depletion, 48 hrs, SW1353): > 1000 µM
IC50 (MCF-7): 276 ± 33.2 µM
XBP-1 mRNA splicing (XBP1 mRNA): varies from predominately unspliced to spliced
induction of apoptosis ([1]; 10 μM): little effect
induction of apoptosis ([1]; 30 μM): variable responses
induction of apoptosis ([1]; 300 μM): marked induction of apoptosis
IC50 (CaCo-2): 708 ± 159 µM
urinary excretion [2]: increases with multiple doses
IC50 (HPAFII; Homo sapiens, HPAF-II, 48 h, read-out: IC50 1-4 (independent replicates), ATP depletion, 48 hrs, HPAFII): > 1000 µM
IC50 (HPAFII; Homo sapiens, HPAF-II, 48 h, read-out: IC50 Mean, ATP depletion, 48 hrs, HPAFII): > 1000 µM
IC50 (HPAFII; read-out: IC50 1-4 (independent replicates), ATP depletion, 48 hrs, HPAFII): > 1000 µM and 750 µM
IC50 (U2OS): > 1000 µM
IC50 (A375): 222 ± 21.2 µM
IC50 (OUMS-27; [8]): 800 µM
IC50 (OUMS-27; Homo sapiens, 48 h, ATP depletion, 48 hrs, read-out: IC50 1-4 (independent replicates)): 1000 µM
IC50 (OUMS-27; Homo sapiens, 48 h, ATP depletion, 48 hrs, read-out: IC50 Mean): 900 µM
IC50 (OUMS-27; Homo sapiens, 48 h, Example 7, 48 hour, CXR1002 0-1 mM, U0126 fixed 10 μM where combined, read-out: IC50): 821 µM
stability (Stability / shelf life): extremely stable
expression of ER stress-regulated proteins [3]: altered expression of ER stress-regulated proteins
IC50 (Capan2; Homo sapiens, Capan-2, 48 h, read-out: IC50 1-4 (independent replicates), ATP depletion, 48 hrs, Capan2): 850 µM
IC50 (Capan2; Homo sapiens, Capan-2, 48 h, read-out: IC50 Mean, ATP depletion, 48 hrs, Capan2): 817 µM
IC50 (Capan2; read-out: IC50 1-4 (independent replicates), ATP depletion, 48 hrs, Capan2): 750 µM
IC50 (HT1080): > 1000 µM
clinical toxicity [4]: relatively non-toxic
ATF3 induction (PANC-1 cells): 3 fold
effect on tumour volumes ([5]; 25 mg/kg i.p. three times per week for 28 days): anti-tumour effect
Absolute Tumour Volume as a Percentage of Saline Control ([5]; HT-29, 25 mg/kg i.p. three times per week, Day 29): 49.22%
effect on body weight ([5]; HT-29 model): No significant compound-dependent effects
increase in liver weight ([5]; HT-29 model): up to 2.5 fold
Terminal / maximum CXR1002 plasma level ([5]; HT-29 model, 24 hrs post last dose, Day 29): 277 µM
increase in plasma AST ([5]; mice bearing HT-29 xenografts): up to 3.5 fold
plasma ALT levels ([5]; mice bearing HT-29 xenografts): decreased
plasma glucose and triglyceride levels ([5]; tumour-bearing nude mice, HT-29): slight reductions
concentration at 24 h [6]: 277 µM
IC50 (BxPc3; [8]): 350 µM and 400 µM
IC50 (BxPc3; Homo sapiens, BXPC-3, 48 h, ATP depletion, 48 hrs, read-out: IC50 1-4 (independent replicates)): 370 µM
IC50 (BxPc3; Homo sapiens, BXPC-3, 48 h, ATP depletion, 48 hrs, read-out: IC50 Mean): 373 µM
IC50 (BxPc3; Homo sapiens, BXPC-3, 48 h, Example 7, 48 hour, CXR1002 0-1 mM, U0126 fixed 10 μM where combined, read-out: IC50): 381 µM
growth inhibition response ([7]; 25 mg/kg 2× or 3× per week): modest response
Absolute Tumour Volume as a Percentage of Saline Control ([7]; HepG2, 25 mg/kg, combined regimens, Day 53): 77.05%
Terminal CXR1002 plasma levels ([7]; HepG2 model, ×3 weekly regimen, Days 60-64): 520 µM and 520 ± 46 µM
IC50 (HepG2): 162 ± 31.8 µM
